{"source": "patent US11248003B2", "about": "“Pyrimidine derivative having effect of inhibiting cancer cell growth and pharmaceutical composition containing same” (ONCOBIX CO., LTD., priority 2017, dated 2022)", "key": {"[1]": {"tested_on": "Ba/F3 cell line expressing EGFR DEL19/T790M/C797S", "assay": "Inhibitory effect on cancer cell growth (MTT), Ba/F3 DEL19/T790M/C797S", "assay_type": "cell-based, Murine", "conditions": "for IC50: read-out: DEL19/T790M/C797S (IC50); for inhibitory activity on C797S mutant EGFR-expressed cancer cell lines, comparison in words: both Ba/F3 triple mutant lines of Table 2", "description": "(§1) The inhibitory effect on the growth of a C797S-expressed triple mutant Ba/F3 cancer cell line was measured for the compounds obtained in the examples above. The kinase assay and anticancer efficacy activity using a Ba/F3 stable cell line were measured by the following method:\n(§2) 1. […] All constructs were retroviral vectors and finally completed viral particles for infection.\n(§3) 2. Construction of Ba/F3 stable cell lines: Murine lymphoid cells undergo IL-3 dependent growth. […] Briefly, each construct was infected into Ba/F3 cell lines, and after 48 hours, IL-3 was removed with media exchange and cells were cultured. However, puromycin selection was performed for wild type EGFR.\n(§4) 3. Identification of Ba/F3 stable cell lines: All stable cell lines were subjected to western blotting to confirm the expression of each construct and EGFR activity (EGFR wild type and L858R were omitted).\n(§5) 5. Anticancer effect verification by MTT assay: 2×10^3 cells were seeded in a 96-well plate. After 24 hours, each of the drugs was treated in a dose-dependent manner, incubated for 72 hours, reacted with 15 μL of MTT reagent for 4 hours, and then 100 μL of 10% SDS was added thereto and incubated for 24 hours. […] MTT results were analyzed by measuring IC50 values through prism software."}, "[2]": {"target": "MET kinase (Homo sapiens (Human), UniProt P08581)", "sequence (P08581 25-1390)": "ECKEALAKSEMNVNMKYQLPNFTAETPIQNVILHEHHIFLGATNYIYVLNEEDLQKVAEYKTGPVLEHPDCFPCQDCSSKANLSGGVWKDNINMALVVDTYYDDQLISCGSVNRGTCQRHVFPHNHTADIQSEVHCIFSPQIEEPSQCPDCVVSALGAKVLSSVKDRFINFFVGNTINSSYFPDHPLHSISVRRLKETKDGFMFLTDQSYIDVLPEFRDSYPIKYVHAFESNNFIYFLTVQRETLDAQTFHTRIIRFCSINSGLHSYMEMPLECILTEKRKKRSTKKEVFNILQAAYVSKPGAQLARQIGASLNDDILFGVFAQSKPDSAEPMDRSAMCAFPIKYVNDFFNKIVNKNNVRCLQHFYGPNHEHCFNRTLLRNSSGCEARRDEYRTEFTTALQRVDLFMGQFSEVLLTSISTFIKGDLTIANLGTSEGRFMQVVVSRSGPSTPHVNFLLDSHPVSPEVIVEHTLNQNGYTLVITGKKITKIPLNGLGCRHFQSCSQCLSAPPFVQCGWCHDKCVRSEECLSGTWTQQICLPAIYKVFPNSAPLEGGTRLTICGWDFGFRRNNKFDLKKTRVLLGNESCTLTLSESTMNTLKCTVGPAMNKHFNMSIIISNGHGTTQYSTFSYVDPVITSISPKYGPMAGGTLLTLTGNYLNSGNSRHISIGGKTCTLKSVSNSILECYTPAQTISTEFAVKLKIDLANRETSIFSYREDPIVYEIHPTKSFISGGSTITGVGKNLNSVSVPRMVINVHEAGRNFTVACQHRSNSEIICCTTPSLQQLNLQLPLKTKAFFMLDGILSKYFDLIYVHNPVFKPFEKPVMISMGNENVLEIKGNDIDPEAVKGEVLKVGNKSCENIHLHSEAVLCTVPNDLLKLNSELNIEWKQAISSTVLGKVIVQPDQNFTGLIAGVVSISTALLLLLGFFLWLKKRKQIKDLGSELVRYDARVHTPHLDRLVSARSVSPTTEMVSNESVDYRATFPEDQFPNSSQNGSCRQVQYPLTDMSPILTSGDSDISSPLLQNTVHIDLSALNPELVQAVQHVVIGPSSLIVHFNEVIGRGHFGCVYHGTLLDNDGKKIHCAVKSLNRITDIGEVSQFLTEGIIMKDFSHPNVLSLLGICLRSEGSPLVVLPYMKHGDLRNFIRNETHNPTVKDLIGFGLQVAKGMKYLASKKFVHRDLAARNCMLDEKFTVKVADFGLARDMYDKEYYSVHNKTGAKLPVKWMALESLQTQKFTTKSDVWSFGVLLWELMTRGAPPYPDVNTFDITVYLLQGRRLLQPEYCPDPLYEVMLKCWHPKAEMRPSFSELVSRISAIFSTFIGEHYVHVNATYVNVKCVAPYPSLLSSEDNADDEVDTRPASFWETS", "assay": "Kinase inhibitory activity, MET", "assay_type": "biochemical", "conditions": "33P-ATP filter assay, about 40 minutes at room temperature", "method": "The kinase inhibitory activity was measured by the following method:\nThe compound to be evaluated (DMSO solution) and Mg/ATP were added to proceed the reaction.\nAfter about 40 minutes at room temperature, the reaction was stopped by the addition of 10 μL of 0.5% phosphoric acid.\n10 μL of 0.5% reaction solution was spotted onto a P30 filtermat.\nWashed 4 times for about 4 minutes in 0.425% phosphoric acid. Washed once in methanol, and then dried and analyzed by scintillation counting to measure IC50 value."}, "[3]": {"tested_on": "Ba/F3 cell line expressing EGFR L858R/T790M/C797S", "assay": "Inhibitory effect on cancer cell growth (MTT), Ba/F3 L858R/T790M/C797S", "assay_type": "cell-based, Murine", "conditions": "read-out: L858R/T790M/C797S (IC50)", "description": "as §1, §2, §3, §4, §5"}, "[4]": {"conditions": "Mus musculus, BaF3, Ba/F3 stable cell line, MTT, 72 hours, GI50"}, "[5]": {"conditions": "Ba/F3 stable cell line, MTT, 72 hours, GI50"}}, "note": "Like-named read-outs stand apart in the source and are kept apart here."}
{"smiles": "COc1cc(N2CCC(N3CCN(C)CC3)CC2)ccc1Nc1ncc(Cl)c(Nc2ccccc2P(C)(C)=O)n1", "note": "[Brigatinib]", "values": [{"measurement": "IC50", "setting": "[1]; Mus musculus, BaF3, 72 h", "value": 0.56, "unit": "µM"}, {"measurement": "inhibitory activity on C797S mutant EGFR-expressed cancer cell lines, comparison in words", "setting": "[1]", "value": "very less active"}, {"measurement": "IC50", "setting": "[2]", "value": 0.07, "unit": "µM"}, {"measurement": "IC50", "setting": "[3]; Mus musculus, BaF3, 72 h", "value": 0.86, "unit": "µM"}]}
{"smiles": "COc1cc(N2CCC(N3CCN(C)CC3)CC2)ccc1Nc1ncc(Cl)c(Nc2ccccc2N(C)S(C)(=O)=O)n1", "note": "[Example 1, N-(2-((5-chloro-2-((2-methoxy-4-(4-(4-methylpiperazin-1-yl)piperidin-1-yl)phenyl)amino)pyrimidin-4-yl)amino)phenyl)-N-methylmethanesulfonamide]", "values": [{"measurement": "IC50", "setting": "[1]; [4]", "value": 0.21, "unit": "µM"}, {"measurement": "IC50", "setting": "[2]", "value": 0.001, "unit": "µM"}, {"measurement": "IC50", "setting": "[3]; [4]", "value": 0.16, "unit": "µM"}]}
{"smiles": "COc1cc(N2CCC(N3CCN(C)CC3)CC2)ccc1Nc1ncc(Cl)c(Nc2cc(F)ccc2N(C)S(C)(=O)=O)n1", "note": "[Example 2, N-(2-((5-chloro-2-((2-methoxy-4-(4-(4-methylpiperazin-1-yl)piperidin-1-yl)phenyl)amino)pyrimidin-4-yl)amino)-4-fluorophenyl)-N-methylmethanesulfonamide]", "values": [{"measurement": "IC50", "setting": "[1]; [4]", "value": 0.222, "unit": "µM"}, {"measurement": "IC50", "setting": "[3]; [4]", "value": 0.533, "unit": "µM"}]}
{"smiles": "COc1cc(N2CCC(N(C)C)CC2)ccc1Nc1ncc(Cl)c(Nc2ccccc2N(C)S(C)(=O)=O)n1", "note": "[Example 3, N-(2-((5-chloro-2-((4-(4-(dimethylamino)piperidin-1-yl)-2-methoxyphenyl)amino)pyrimidin-4-yl)amino)phenyl)-N-methylmethanesulfonamide]", "values": [{"measurement": "IC50", "setting": "[1]; [4]", "value": 0.323, "unit": "µM"}, {"measurement": "IC50", "setting": "[3]; [4]", "value": 0.531, "unit": "µM"}]}
{"smiles": "COc1cc(C2CCNCC2)ccc1Nc1ncc(Cl)c(Nc2ccccc2NS(C)(=O)=O)n1", "note": "[TRE-069]", "values": [{"measurement": "IC50", "setting": "[1]; [5]", "value": 5, "unit": "µM"}, {"measurement": "inhibitory activity on C797S mutant EGFR-expressed cancer cell lines, comparison in words", "setting": "[1]", "value": "very less active"}, {"measurement": "IC50", "setting": "[2]", "value": 0.12, "unit": "µM"}, {"measurement": "IC50", "setting": "[3]; [5]", "value": 4, "unit": "µM"}]}
